According to patent publication US5212157A, “Enzyme inhibitors” (Bio-Mega, Inc., priority 1989, dated 1993):
Where a name gives a salt, the structure may show the parent alone. Numbered stars: 1 amine (or outer) side, 2 acyl side, 3 side chain; on linkers, the order of the positions; unused ones are H or OH. Square brackets hold non-standard residues; d marks the D form. Peptide text beside a SMILES is read from it. Ahppa(3S,4S) = O=C(C[C@H](O)[C@H](Cc1ccccc1)N[*:1])[*:2]; ACHPA = O=C(C[C@H](O)[C@H](CC1CCCCC1)N[*:1])[*:2]; Tic = O=C(O)[C@@H]1Cc2ccccc2CN1

molecular target: T1, HIV protease (Human immunodeficiency virus type 1 group M subtype B, UniProt P04585); assay: Recombinant HIV Protease HPLC Assay; format: biochemical; conditions: recombinant HIV protease expressed in E. coli; substrate VSFNFPQITL-NH2; pH 6 buffer; 37° C. for 1 h; HPLC quantification
T1 construct: HIV protease was expressed in E. coli and purified to ca. 50% purity; made in house; host or cells: E. coli
Text: The procedure is based on the capacity of the test compound to inhibit enzymatic cleavage by HIV protease of a decapeptide (the substrate) having an amino acid sequence which includes a known HIV protease cleavage site of the HIV polyprotein; see H. G. Krausslich et al., Proc. Natl. Acad. Sci. USA, 86, 807 (1989). Details of this assay together with the results obtained for exemplified peptides of formula 1 are described in the examples hereinafter.
Recombinant HIV Protease HPLC Assay
Enzyme: HIV protease was expressed in E. coli and purified to ca. 50% purity according to the procedure described by H.-G. Krausslich et al., Proc. Natl. Acad. Sci. U.S.A., 86, 807 (1989). The enzyme was stored as 10 μL aliquots at -70° C. The aliquots were diluted to 1/10th of the original concentration with buffer prior to use (enzyme working solution).
Substrate: VSFNFPQITL-NH2, MW 1164, see Krausslich et al., supra, was used as substrate. The substrate was made into 10 mM stock in DMSO and stored at -20° C. Prior to use, the stock was diluted with buffer to give a 400 μM solution substrate working solution.
Buffer: 2-(4-Morpholino)ethanesulfonic acid (50 mM), NaCl (25 mM) and EDTA (5 mM) was dissolved in distilled H2 O (90 mL) and the solution was adjusted to pH6 with concentrated aqueous NaOH. The latter solution was diluted to 100 mL with H2 O to give the buffer.
Procedure: (1) The test compound was dissolved in DMSO to give a solution having 40× the final concentration of the test compound in the assay mixture (see step 2) so that the amount of DMSO in the assay mixture was 5% (v,v) or less. (2) The assay mixture was prepared by mixing 10 μL of the substrate working solution, 0.5 μL of the solution of the test compound in DMSO from step 1, and 10 μL of the enzyme working solution. (3) The assay mixture was incubated at 37° C. for 1h. (4) The reaction was quenched by adding 100 μL of 2% aqueous TFA. (5) The substrate and products (i.e. VSFNF and PQITL-NH2) were separated by subjecting 100 μL of the quenched assay mixture to HPLC using Nucleosil ® C18 column with a 26-min linear gradient at 1 mL/min from 11% to 70% acetonitrile in H2 O with 0.05% aqueous TFA. Elution was monitored at 210 nm. (6) A control which was the assay mixture without the test compound, was subjected simultaneously to steps 3 to 5.
Inhibition Studies: Cleavage products and remaining parent substrate were quantified by either peak height or by integration of the appropriate HPLC peaks. Substrate conversion was calculated using the following relationship: [formula] Enzyme inhibition of the test compound was calculated as follows: [formula]
The concentration of the test compound which causes a 50% inhibition of the HIV-protease, i.e. the IC50, was determined as follows: The percent inhibition of the enzyme was determined for a minimum of three different concentrations of the test compound. Thereafter, the IC50 was determined graphically by plotting the percent inhibition of the substrate against the concentration of the test compound.

| Compound | IC50 [nM] |
| --- | --- |
| CC(C)C[C@H](NC(=O)C[C@H](O)[C@H](CC1CCCCC1)NC(=O)[C@H](C)NC(=O)[C@@H]1Cc2ccccc2CN1)C(=O)N[C@@H](Cc1ccccc1)C(=O)O [Example 14, THIQ-Ala-ACHPA-Leu-Phe-OH.HCl] (H-[Tic]A[ACHPA]LF-OH) | 200 |
| CC(C)C[C@H](NC(=O)C[C@H](O)[C@H](Cc1ccccc1)NC(=O)[C@@H](NC(=O)[C@@H]1Cc2ccccc2CN1)C(C)C)C(=O)N[C@@H](Cc1ccccc1)C(N)=O [Example 16, THIQ-Val-AHPPA-Leu-Phe-NH2.HCl] (H-[Tic]V[Ahppa(3S,4S)]LF-NH2) | 25 |
| N-[N-[N-[N-[3-(1,2,3,4-Tetrahydroisoquinolyl)carbonyl]-L-alanyl]-4(S)-amino-3(S)-hydroxy-5-cyclohexylpentanoyl]-L-leucyl]-L-phenylalaninamide Hydrochloride [Example 1] | 90 |
| THIQ-Val-ACHPA-Ala-Phe-NH2.HCl [Example 7] | 17 |
| THIQ-Val-Cha.psi.[CH2 NH]Leu-Leu-Phe-NH2.HCl [Example 20] | 80 |
